# Data: patent publication US20090318385A1, “Pyrazolopyride derivative and phosphodiesterase ( pde) inhibitors containing the same as active ingredient” (priority 2006, published 2009)
# Legend:
# [1] = tested on: histamine-induced bronchoconstriction; assay: Histamine-induced airway contraction reaction in guinea pigs; format: in vivo; details: test compound 1 mg/kg i.v., histamine 12.5 μg/kg i.v., airflow 30 seconds after administration
# Procedure: Guinea pigs were anesthetized with pentobarbital (30 mg/kg, i.p.). A cannula for intravenous administration, a cannula for collecting blood and measuring blood pressure, and a tracheal cannula were inserted into the left external jugular vein, right internal carotid artery, and trachea, respectively. The guinea pigs were maintained on artificial respiration under the conditions of 60 times/min and 10 mL/kg/stroke. The airflow from the side branch of the tracheal cannula was measured by a bronchospasm transducer (Ugo-Basile) and recorded on a computer via Power Lab (ADInstruments Japan). The guinea pigs were immobilized with gallamine (10 mg/kg, i.v.), and histamine was administered at 10-minute intervals (12.5 μg/kg, i.v.). After the histamine-induced bronchoconstriction was constant, one of the test compounds (1 mg/kg, i.v.) dissolved in DMSO was administered. We examined the inhibitory action of test compounds on histamine-induced bronchoconstriction 30 seconds after compounds administration. Bronchoconstriction was recorded as the value of airflow, and the results were represented by the ratio of the maximum value of the histamine-induced airflow 30 seconds after the administration to the maximum value of the airflow before the administration. When the inhibition ratio≧90%, the results were represented by “+++.” When 90%>the inhibition ratio≧70%, the results were represented by “++.” When 70%>the inhibition ratio≧30%, the results were represented by “+.”
# [2] = tested on: total number of leukocytes in bronchoalveolar lavage fluid after LPS inhalation; assay: LPS acute inflammation model in rats; format: in vivo; details: Rattus norvegicus, Leukocyte, po, 3 mg/kg orally one hour before LPS inhalation, total leukocytes in BALF 3 hours after LPS inhalation, read-out: Inhibition ratio
# Procedure: 3 mg/kg of the compounds were orally administered to rats one hour before inhalation of lipopolysaccharide (LPS) from E. coli serotype 055:B5, rats were inhalted nebulizing LPS solution (50 mL) by nebulizer for 30 minutes. Then, 3 hours after the LPS inhalation, rats were euthanized with 20% urethane (5 ml/rat, i.p.) 5 ml of physiological saline for bronchoalveolar lavage was injected into the bronchoalveolar space through the airway, and the bronchoalveolar space was washed 3 times using a 5 mL syringe. This procedure was repeated twice, and the solution was collected as bronchoalveolar lavage fluid (BALF). The collected BALF was centrifuged at 1,200 rpm and 4° C. for 10 minutes (Hirtachi; himac CR 5 DL). The sediment was re-suspended in 10 mL of a 0.1% bovine serum albumin-physiological saline, and an equivalent amount of Turk's solution was added to the suspension to stain leukocytes. The total number of leukocytes was counted under a microscope to determine the inhibition ratio. When the inhibition ratio≧60%, the results were represented by “++.” When 60%>the inhibition ratio≧30%, the results were represented by “+.”
# [3] = target: T1, PDE4B catalytic domain (Homo sapiens, UniProt Q07343); assay: Phosphodiesterase inhibitory activity (recombinant PDE4Bcat, [3H]cAMP); format: biochemical; details: 30° C. for 20 minutes, read-out: IC50 (μmol/L) PDE4
# T1 construct: The cDNA of PDE4B catalytic domain (hereinafter abbreviated as Cat) was isolated from human RNA by RT-PCR; made in house; host or cells: Sf9 insect cells (baculovirus, Bac-to-Bac)
# Description: The cDNA of PDE4B catalytic domain (hereinafter abbreviated as Cat) was isolated from human RNA by RT-PCR. The isolated cDNA fragments were inserted into Sf9 insect cells using Gateway system (product of Invitrogen Corporation) and Bac-to-Bac (registered trademark) Baculovirus Expression system (product of Invitrogen Corporation) to express a target PDE protein. The recombinant PDE4Bcat was purified from the culture supernatants or cell extracts of Sf9 cells expressing high levels of the PDE protein by ion exchange chromatography and was used for the following experiments.
# A 4 mmol/L solution of each test compound was serially diluted four-fold with a 15% DMSO solution to prepare solutions with concentrations of 15 nmol/L to 4 mmol/L (the final concentrations used in the experiments were 1.5 nmol/L to 400 μmol/L). 10 μL of the prepared test compound solutions, [^3H] cAMP diluted with a buffer solution (40 mmol/L Tris-HCl (pH: 7.4), 10 mmol/L MgCl2), and 40 μL of the recombinant human PDE protein (2×10^−6 units, 1 unit is defined as the amount of PDE that breaks down 1 μmol/L of cAMP in one minute under the conditions of a pH of 7.5 and 30° C.) were added to a 96-well plate. The mixtures were reacted at 30° C. for 20 minutes. Then, the resultant mixtures were reacted at 65° C. for 2 minutes. Subsequently, […] of 1 mg/mL 5′-nucleotidase (Crotalusatrox venom, product of Sigma) was added to the mixtures, and the mixtures were reacted at 30° C. for 10 minutes. After completion of the reaction, 200 μL of a solution of Dowex (300 mg/mL Dowex 1x8-400 (product of Sigma Aldrich), 33% ethanol) was added to the mixtures, and the mixtures were shaken at 4° C. for 20 minutes. Subsequently, 200 μL of MicroScint 20 (product of Packard) was added to the mixtures, and measurement was performed using a scintillation counter (Topcount, product of Packard). IC50 values were calculated using Graph Pad Prism v3.03 (product of GraphPad Software). When 1 μmol/L>the IC50 value≧0.1 μmol/L, the results were represented by “+.” When 0.1 μmol/L>the IC50 value, the results were represented by “++.”
# T1 sequence (Q07343 330-659 limits assumed): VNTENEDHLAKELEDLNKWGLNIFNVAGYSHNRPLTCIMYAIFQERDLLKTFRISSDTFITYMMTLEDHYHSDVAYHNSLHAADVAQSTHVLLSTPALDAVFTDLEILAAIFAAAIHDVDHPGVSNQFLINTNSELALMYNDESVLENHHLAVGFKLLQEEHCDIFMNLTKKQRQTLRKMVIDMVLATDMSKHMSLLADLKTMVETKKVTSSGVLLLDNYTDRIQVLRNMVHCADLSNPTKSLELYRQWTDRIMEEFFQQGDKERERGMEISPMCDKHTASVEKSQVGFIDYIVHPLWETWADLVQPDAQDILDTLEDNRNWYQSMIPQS
IC50 [3] [µmol/L],SMILES,Inhibition ratio [1],inhibition in vivo at 3 mg/kg [2] [%]
< 0.1,"COc1ccc(C(=O)Cc2c(Cl)cncc2Cl)c2cc(C(F)(F)F)nn12 [Example 88, 2-(3,5-Dichloropyridin-4-yl)-1-(7-methoxy-2-trifluoromethylpyrazolo[1,5-a]pyridin-4-yl)ethanone]","++ (When 90%>the inhibition ratio≧70%, the results were represented by “++.”)",≥ 60
< 0.1,"COc1ccc(CCc2ccncc2)c2cc(C(F)(F)F)nn12 [Example 79, 7-Methoxy-4-[(2-pyridin-4-yl)ethyl]-2-trifluoromethylpyrazolo[1,5-a]pyridine]","+ (When 70%>the inhibition ratio≧30%, the results were represented by “+.”)",≥ 60
< 0.1,"COc1ccc(C=Cc2ccncc2)c2cc(C(F)(F)F)nn12 [Example 78, 7-Methoxy-4-[(2-pyridin-4-yl)vinyl]-2-trifluoromethylpyrazolo[1,5-a]pyridine]","+ (When 70%>the inhibition ratio≧30%, the results were represented by “+.”)",30 to 60
< 0.1,"COc1ccc(/C=C/c2c(Cl)cncc2Cl)c2cc(C(F)(F)F)nn12 [Example 89, (E)-4-[2-(3,5-dichloropyridin-4-yl)vinyl]-7-methoxy-2-trifluoromethylpyrazolo[1,5-a]pyridine]","+ (When 70%>the inhibition ratio≧30%, the results were represented by “+.”)",30 to 60
